Test results published in ChEMBL document CHEMBL4052645, “Discovery of potent and efficacious pyrrolopyridazines as dual JAK1/3 inhibitors” (Bioorg Med Chem Lett, 2017).

Legend:
[1] = molecular target: Dual serine/threonine and tyrosine protein kinase (Homo sapiens) (UniProt Q6XUX3); assay: Inhibition of wild-type human full length RIPK5 (M1 to T929 residues) expressed in mammalian expression system assessed as residual activity at 50 nM by Kinomescan method relative to control
[2] = molecular target: MAP kinase-interacting serine/threonine-protein kinase 1 (Homo sapiens) (UniProt Q9BUB5); assay: Inhibition of wild-type human full length MNK1 (M1 to L424 residues) expressed in mammalian expression system assessed as residual activity at 50 nM by Kinomescan method relative to control
[3] = molecular target: Mitogen-activated protein kinase 12 (Homo sapiens) (UniProt P53778); assay: Inhibition of wild-type human full length p38-gamma (M1 to L367 residues) expressed in mammalian expression system assessed as residual activity at 50 nM by Kinomescan method relative to control
[4] = molecular target: Ephrin type-A receptor 6 (Homo sapiens) (UniProt Q9UF33); assay: Inhibition of wild-type human partial length EPHA6 (Y700 to E1046 residues) expressed in bacterial expression system assessed as residual activity at 50 nM by Kinomescan method relative to control
[5] = molecular target: Dual specificity mitogen-activated protein kinase kinase 6 (Homo sapiens) (UniProt P52564); assay: Inhibition of wild-type human partial length MAP2K6 (K36 to D334 residues) expressed in bacterial expression system assessed as residual activity at 50 nM by Kinomescan method relative to control
[6] = molecular target: Serine/threonine-protein kinase 35 (Homo sapiens) (UniProt Q8TDR2); assay: Inhibition of wild-type human partial length CLIK1 (G182 to A534 residues) expressed in bacterial expression system assessed as residual activity at 50 nM by Kinomescan method relative to control
[7] = molecular target: Tyrosine-protein kinase Mer (Homo sapiens) (UniProt Q12866); assay: Inhibition of wild-type human partial length MER (R557 to L884 residues) expressed in bacterial expression system assessed as residual activity at 50 nM by Kinomescan method relative to control
[8] = molecular target: Serine/threonine-protein kinase 17A (Homo sapiens) (UniProt Q9UEE5); assay: Inhibition of wild-type human partial length DRAK1 (R32 to E363 residues) expressed in bacterial expression system assessed as residual activity at 50 nM by Kinomescan method relative to control
[9] = molecular target: Dual specificity protein kinase CLK3 (Homo sapiens) (UniProt P49761); assay: Inhibition of wild-type human full length CLK3 (M1 to R490 residues) expressed in bacterial expression system assessed as residual activity at 50 nM by Kinomescan method relative to control
Chain of Dual specificity protein kinase CLK3 (Homo sapiens) (P49761 whole entry, looked up, the tested form may be a part, canonical isoform): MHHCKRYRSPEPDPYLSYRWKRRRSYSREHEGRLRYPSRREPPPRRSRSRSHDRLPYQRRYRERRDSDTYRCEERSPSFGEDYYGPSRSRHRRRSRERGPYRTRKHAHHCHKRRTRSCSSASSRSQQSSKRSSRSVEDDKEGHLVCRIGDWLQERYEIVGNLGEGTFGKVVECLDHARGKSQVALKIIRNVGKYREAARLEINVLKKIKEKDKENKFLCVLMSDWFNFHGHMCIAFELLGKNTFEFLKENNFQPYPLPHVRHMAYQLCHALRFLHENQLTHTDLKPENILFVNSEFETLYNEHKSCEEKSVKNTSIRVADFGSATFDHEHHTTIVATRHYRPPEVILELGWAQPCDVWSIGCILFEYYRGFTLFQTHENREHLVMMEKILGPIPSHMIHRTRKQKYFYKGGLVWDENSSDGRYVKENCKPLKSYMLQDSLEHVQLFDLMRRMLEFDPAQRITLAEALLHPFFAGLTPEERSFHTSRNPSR

[10] = molecular target: Casein kinase I isoform gamma-2 (Homo sapiens) (UniProt P78368); assay: Inhibition of wild-type human full length CK1G2 (M1 to K415 residues) expressed in bacterial expression system assessed as residual activity at 50 nM by Kinomescan method relative to control
[11] = molecular target: Serine/threonine-protein kinase TNNI3K (Homo sapiens) (UniProt Q59H18); assay: Inhibition of wild-type human HH498 (M1 to S835 residues) expressed in bacterial expression system assessed as residual activity at 50 nM by Kinomescan method relative to control
[12] = molecular target: Mitogen-activated protein kinase 10 (Homo sapiens) (UniProt P53779); assay: Inhibition of wild-type human partial length JNK3 (V28 to Q422 residues) expressed in mammalian expression system assessed as residual activity at 50 nM by Kinomescan method relative to control
[13] = molecular target: Receptor tyrosine-protein kinase erbB-3 (Homo sapiens) (UniProt P21860); assay: Inhibition of wild-type human partial length ERBB3 (G684 to A987 residues) expressed in mammalian expression system assessed as residual activity at 50 nM by Kinomescan method relative to control
Chain of Receptor tyrosine-protein kinase erbB-3 (Homo sapiens) (P21860 whole entry, the tested form may be a part): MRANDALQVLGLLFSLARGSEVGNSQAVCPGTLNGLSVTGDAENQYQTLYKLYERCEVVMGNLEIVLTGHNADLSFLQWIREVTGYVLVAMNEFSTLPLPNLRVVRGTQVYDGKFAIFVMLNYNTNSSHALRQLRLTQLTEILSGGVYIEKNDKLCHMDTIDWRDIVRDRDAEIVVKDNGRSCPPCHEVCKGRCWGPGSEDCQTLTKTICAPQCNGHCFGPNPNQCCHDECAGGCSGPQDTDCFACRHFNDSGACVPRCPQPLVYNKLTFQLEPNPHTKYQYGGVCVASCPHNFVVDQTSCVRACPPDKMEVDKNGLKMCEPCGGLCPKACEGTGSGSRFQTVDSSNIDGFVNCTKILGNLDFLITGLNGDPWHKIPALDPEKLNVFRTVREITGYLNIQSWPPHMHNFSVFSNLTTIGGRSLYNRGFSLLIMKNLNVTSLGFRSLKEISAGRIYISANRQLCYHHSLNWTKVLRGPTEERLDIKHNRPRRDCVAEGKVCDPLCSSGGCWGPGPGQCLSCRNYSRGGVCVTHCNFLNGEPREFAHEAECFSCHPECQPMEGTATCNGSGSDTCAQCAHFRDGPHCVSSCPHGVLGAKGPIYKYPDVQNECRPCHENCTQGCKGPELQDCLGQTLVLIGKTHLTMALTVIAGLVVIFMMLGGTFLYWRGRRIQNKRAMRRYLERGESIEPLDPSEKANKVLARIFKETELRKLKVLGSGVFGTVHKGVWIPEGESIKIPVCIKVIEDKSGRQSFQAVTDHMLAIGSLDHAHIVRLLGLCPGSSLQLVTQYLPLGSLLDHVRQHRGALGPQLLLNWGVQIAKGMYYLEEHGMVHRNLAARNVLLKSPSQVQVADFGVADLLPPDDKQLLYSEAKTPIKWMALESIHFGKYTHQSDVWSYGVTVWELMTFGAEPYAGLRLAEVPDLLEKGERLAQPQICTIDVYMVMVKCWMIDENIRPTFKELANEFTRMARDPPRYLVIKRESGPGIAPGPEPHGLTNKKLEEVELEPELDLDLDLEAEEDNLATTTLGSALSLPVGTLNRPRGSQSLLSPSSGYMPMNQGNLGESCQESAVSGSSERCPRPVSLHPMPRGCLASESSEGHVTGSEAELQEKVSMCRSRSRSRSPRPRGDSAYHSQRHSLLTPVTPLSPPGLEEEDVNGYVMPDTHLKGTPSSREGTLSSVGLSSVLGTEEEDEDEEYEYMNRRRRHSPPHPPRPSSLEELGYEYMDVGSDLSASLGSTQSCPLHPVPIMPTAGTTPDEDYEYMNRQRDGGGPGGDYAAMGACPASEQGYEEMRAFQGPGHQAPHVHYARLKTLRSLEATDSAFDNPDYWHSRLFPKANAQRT

[14] = molecular target: Eukaryotic translation initiation factor 2-alpha kinase 1 (Homo sapiens) (UniProt Q9BQI3); assay: Inhibition of wild-type human partial length EIF2AK1 (Q147 to E603 residues) expressed in mammalian expression system assessed as residual activity at 50 nM by Kinomescan method relative to control
[15] = molecular target: Protein-tyrosine kinase 2-beta (Homo sapiens) (UniProt Q14289); assay: Inhibition of wild-type human full length PYK2 (M1 to E967 residues) expressed in bacterial expression system assessed as residual activity at 50 nM by Kinomescan method relative to control
[16] = molecular target: Insulin-like growth factor 1 receptor (Homo sapiens) (UniProt P08069); assay: Inhibition of wild-type human partial length IGF1R (L972 to D1294 residues) expressed in bacterial expression system assessed as residual activity at 50 nM by Kinomescan method relative to control
[17] = molecular target: Myotonin-protein kinase (Homo sapiens) (UniProt Q09013); assay: Inhibition of human DMPK1 (V47 to N415 residues) expressed in bacterial expression system assessed as residual activity at 50 nM by KINOMEscan assay relative to control
[18] = molecular target: Tyrosine-protein kinase Tec (Homo sapiens) (UniProt P42680); assay: Inhibition of wild-type human partial length TEC (L341 to D620 residues) expressed in bacterial expression system assessed as residual activity at 50 nM by Kinomescan method relative to control
[19] = molecular target: Protein kinase C theta type (Homo sapiens) (UniProt Q04759); assay: Inhibition of wild-type human partial length PKCT (L350 to S706 residues) expressed in bacterial expression system assessed as residual activity at 50 nM by Kinomescan method relative to control
[20] = molecular target: Mitogen-activated protein kinase kinase kinase 6 (Homo sapiens) (UniProt O95382); assay: Inhibition of wild-type human partial length MAP3K6 (M278 to R972 residues) expressed in mammalian expression system assessed as residual activity at 50 nM by Kinomescan method relative to control
Chain of Mitogen-activated protein kinase kinase kinase 6 (Homo sapiens) (O95382 whole entry, the tested form may be a part): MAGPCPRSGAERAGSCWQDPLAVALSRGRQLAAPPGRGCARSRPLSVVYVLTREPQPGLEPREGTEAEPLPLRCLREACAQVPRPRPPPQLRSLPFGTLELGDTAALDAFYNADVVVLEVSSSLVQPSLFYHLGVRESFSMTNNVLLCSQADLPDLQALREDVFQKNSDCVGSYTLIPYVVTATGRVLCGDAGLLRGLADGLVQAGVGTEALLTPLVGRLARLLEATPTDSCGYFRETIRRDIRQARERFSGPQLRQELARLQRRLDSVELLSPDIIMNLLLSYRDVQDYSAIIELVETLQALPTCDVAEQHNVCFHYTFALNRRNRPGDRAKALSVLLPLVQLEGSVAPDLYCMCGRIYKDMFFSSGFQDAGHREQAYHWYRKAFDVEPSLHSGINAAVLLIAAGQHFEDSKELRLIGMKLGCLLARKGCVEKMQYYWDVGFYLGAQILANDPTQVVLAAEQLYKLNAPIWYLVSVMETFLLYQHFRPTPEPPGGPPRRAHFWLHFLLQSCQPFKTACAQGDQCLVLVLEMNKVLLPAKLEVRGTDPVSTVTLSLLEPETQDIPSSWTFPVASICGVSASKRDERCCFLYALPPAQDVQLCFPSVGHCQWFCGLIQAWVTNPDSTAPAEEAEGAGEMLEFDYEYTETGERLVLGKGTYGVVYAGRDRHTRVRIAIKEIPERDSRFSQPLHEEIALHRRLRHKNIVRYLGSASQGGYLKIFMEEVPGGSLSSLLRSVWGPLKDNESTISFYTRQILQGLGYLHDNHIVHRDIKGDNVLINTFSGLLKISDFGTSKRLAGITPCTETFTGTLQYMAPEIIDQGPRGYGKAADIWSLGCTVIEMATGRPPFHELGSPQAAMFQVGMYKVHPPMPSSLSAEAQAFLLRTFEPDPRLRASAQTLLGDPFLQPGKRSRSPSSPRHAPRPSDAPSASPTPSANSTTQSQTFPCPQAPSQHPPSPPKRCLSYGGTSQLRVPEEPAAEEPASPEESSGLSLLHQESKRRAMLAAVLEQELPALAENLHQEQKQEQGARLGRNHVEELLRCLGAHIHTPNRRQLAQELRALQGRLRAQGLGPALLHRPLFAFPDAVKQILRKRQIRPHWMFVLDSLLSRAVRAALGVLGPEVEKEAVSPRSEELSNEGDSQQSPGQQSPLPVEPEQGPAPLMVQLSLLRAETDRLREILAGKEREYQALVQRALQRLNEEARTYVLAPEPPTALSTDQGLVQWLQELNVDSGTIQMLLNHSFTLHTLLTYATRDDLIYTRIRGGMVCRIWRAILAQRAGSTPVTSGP

[21] = molecular target: Cyclin-dependent kinase-like 5 (Homo sapiens) (UniProt O76039); assay: Inhibition of wild-type human partial length CDKL5 (M1 to S337 residues) expressed in mammalian expression system assessed as residual activity at 50 nM by Kinomescan method relative to control
[22] = molecular target: Mitogen-activated protein kinase kinase kinase kinase 1 (Homo sapiens) (UniProt Q92918); assay: Inhibition of wild-type human full length HPK1 (M1 to R799 residues) expressed in bacterial expression system assessed as residual activity at 50 nM by Kinomescan method relative to control
[23] = molecular target: Myosin light chain kinase (Homo sapiens) (UniProt Q32MK0); assay: Inhibition of wild-type human partial length CAMLCK (D488 to K800 residues) expressed in bacterial expression system assessed as residual activity at 50 nM by Kinomescan method relative to control
Chain of Myosin light chain kinase (Homo sapiens) (Q32MK0 whole entry, the tested form may be a part): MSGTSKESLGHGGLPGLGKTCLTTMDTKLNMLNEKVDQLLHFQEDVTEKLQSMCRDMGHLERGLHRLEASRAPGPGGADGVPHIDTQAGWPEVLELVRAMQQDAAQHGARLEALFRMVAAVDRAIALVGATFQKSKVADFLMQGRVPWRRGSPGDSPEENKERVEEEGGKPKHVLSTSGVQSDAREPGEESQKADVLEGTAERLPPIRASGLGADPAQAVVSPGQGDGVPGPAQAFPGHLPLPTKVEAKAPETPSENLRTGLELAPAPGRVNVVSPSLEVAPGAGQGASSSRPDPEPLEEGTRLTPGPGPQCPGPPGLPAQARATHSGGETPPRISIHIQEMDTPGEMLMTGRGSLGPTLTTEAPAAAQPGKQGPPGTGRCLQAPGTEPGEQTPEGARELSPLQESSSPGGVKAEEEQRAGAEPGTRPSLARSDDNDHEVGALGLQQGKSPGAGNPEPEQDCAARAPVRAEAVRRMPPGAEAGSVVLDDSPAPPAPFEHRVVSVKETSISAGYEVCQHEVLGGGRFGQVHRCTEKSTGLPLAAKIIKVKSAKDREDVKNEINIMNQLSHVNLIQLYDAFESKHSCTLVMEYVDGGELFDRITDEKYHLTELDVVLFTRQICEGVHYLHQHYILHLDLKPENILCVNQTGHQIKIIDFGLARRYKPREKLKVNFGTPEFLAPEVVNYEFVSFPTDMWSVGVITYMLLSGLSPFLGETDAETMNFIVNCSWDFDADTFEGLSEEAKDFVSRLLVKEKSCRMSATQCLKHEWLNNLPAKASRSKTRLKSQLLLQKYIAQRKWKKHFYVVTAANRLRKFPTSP

[24] = molecular target: Serine/threonine-protein kinase ULK3 (Homo sapiens) (UniProt Q6PHR2); assay: Inhibition of wild-type human partial length ULK3 (M1 to Q290 residues) expressed in mammalian expression system assessed as residual activity at 50 nM by Kinomescan method relative to control
[25] = molecular target: Mitogen-activated protein kinase 1 (Homo sapiens) (UniProt P28482); assay: Inhibition of wild-type human full length ERK2 (M1 to S360 residues) expressed in bacterial expression system assessed as residual activity at 50 nM by Kinomescan method relative to control

Chain of Dual serine/threonine and tyrosine protein kinase (Homo sapiens) (Q6XUX3 whole entry, the tested form may be a part): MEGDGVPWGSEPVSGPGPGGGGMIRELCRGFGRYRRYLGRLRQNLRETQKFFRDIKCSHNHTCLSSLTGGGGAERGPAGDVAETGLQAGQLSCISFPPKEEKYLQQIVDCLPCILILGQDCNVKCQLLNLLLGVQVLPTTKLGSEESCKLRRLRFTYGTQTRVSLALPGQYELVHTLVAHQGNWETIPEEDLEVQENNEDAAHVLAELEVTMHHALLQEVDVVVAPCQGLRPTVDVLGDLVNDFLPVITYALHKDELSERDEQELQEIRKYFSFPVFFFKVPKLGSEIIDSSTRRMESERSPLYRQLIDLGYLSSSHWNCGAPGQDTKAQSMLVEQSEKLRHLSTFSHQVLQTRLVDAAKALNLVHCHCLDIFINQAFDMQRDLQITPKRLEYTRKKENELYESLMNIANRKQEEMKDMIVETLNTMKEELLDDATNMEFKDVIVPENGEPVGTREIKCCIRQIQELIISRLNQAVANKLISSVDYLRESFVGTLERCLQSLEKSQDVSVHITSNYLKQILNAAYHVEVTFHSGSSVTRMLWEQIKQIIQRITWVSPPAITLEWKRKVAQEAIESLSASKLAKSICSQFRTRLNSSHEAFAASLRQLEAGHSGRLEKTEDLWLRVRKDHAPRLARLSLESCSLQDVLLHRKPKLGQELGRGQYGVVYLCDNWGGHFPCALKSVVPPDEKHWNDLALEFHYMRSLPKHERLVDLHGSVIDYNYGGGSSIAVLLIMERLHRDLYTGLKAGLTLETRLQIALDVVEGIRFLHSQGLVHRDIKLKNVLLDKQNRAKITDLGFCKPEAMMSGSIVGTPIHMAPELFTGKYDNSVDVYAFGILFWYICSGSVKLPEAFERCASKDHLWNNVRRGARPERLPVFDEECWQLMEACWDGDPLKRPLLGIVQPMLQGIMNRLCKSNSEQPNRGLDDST

SMILES: CC1(C)[C@H](Nc2c(C(N)=O)cnn3cc(-c4ccccc4)cc23)CC[C@]1(C)N
- Activity [1]: 92%
- Activity [2]: 54%
- Activity [3]: 100%
- Activity [4]: 100%
- Activity [5]: 100%
- Activity [6]: 74%
- Activity [7]: 100%
- Activity [8]: 100%
- Activity [9]: 100%
- Activity [10]: 100%
- Activity [11]: 83%
- Activity [12]: 87%
- Activity [13]: 100%
- Activity [14]: 94%
- Activity [15]: 100%
- Activity [16]: 100%
- Activity [17]: 2.8%
- Activity [18]: 99%
- Activity [19]: 38%
- Activity [20]: 56%
- Activity [21]: 83%
- Activity [22]: 66%
- Activity [23]: 100%
- Activity [24]: 100%
- Activity [25]: 82%

SMILES: COc1ccc(-c2cc3c(N[C@@H]4CC[C@](C)(N)C4(C)C)c(C(N)=O)cnn3c2)cn1
- Activity [1]: 74%
- Activity [2]: 100%
- Activity [3]: 100%
- Activity [4]: 95%
- Activity [5]: 78%
- Activity [6]: 87%
- Activity [7]: 100%
- Activity [8]: 100%
- Activity [9]: 96%
- Activity [10]: 82%
- Activity [11]: 97%
- Activity [12]: 100%
- Activity [13]: 100%
- Activity [14]: 96%
- Activity [15]: 93%
- Activity [16]: 100%
- Activity [17]: 38%
- Activity [18]: 100%
- Activity [19]: 74%
- Activity [20]: 93%
- Activity [21]: 90%
- Activity [22]: 70%
- Activity [23]: 100%
- Activity [24]: 100%
- Activity [25]: 100%
